ChEMBL document CHEMBL3244027, “Syntheses, analgetic activity, and physical dependence capacity of 5-phenyl-6,7-benzomorphan derivatives” (J Med Chem, 1979)
Activity calls are given as the source filed them. The rule behind the calls is not given here.

Legend:
Mus musculus [1] = assay: Analgetic activity against CF-1 mouse assessed as increase in reaction time at 5 mg/kg, sc by heat stimulus induced tail flick response assay; type: functional, organism-based; set-up: dose 5 mg/kg
Mus musculus [2] = assay: Analgetic activity against CF-1 mouse assessed as increase in reaction time at 10 mg/kg, po by heat stimulus induced tail flick response assay; type: functional, organism-based; set-up: dose 10 mg/kg
Mus musculus [3] = assay: Analgetic activity against CF-1 mouse assessed as increase in reaction time at 80 mg/kg, sc by heat stimulus induced tail flick response assay; type: functional, organism-based; set-up: dose 80 mg/kg
Mus musculus [4] = assay: Analgetic activity against CF-1 mouse assessed as increase in reaction time at 160 mg/kg, po by heat stimulus induced tail flick response assay; type: functional, organism-based; set-up: dose 160 mg/kg
Mus musculus [5] = assay: Analgetic activity against CF-1 mouse assessed as increase in reaction time at 320 mg/kg, sc by heat stimulus induced tail flick response assay; type: functional, organism-based; set-up: dose 320 mg/kg
Mus musculus [6] = assay: Analgetic activity against CF-1 mouse assessed as increase in reaction time at 320 mg/kg, po by heat stimulus induced tail flick response assay; type: functional, organism-based; set-up: dose 320 mg/kg
Mus musculus [7] = assay: Analgetic activity in po dosed CF1S mouse assessed as writhing by phenylquinone writhing test; type: functional; conditions: Mus musculus, CF1S, po; read-out: ED50
Mus musculus [8] = assay: Analgetic activity against CF-1 mouse assessed as increase in reaction time at 160 mg/kg, sc by heat stimulus induced tail flick response assay; type: functional, organism-based; set-up: dose 160 mg/kg
Mus musculus [9] = assay: Analgetic activity in sc dosed CF1S mouse assessed as writhing by phenylquinone writhing test; type: functional; conditions: Mus musculus, CF1S, sc; read-out: ED50
Mus musculus [10] = assay: Analgetic activity against CF-1 mouse assessed as increase in reaction time at 40 mg/kg, sc by heat stimulus induced tail flick response assay; type: functional, organism-based; set-up: dose 40 mg/kg
Mus musculus [11] = assay: Analgetic activity against CF-1 mouse assessed as increase in reaction time at 80 mg/kg, po by heat stimulus induced tail flick response assay; type: functional, organism-based; set-up: dose 80 mg/kg
Mus musculus [12] = organism: Mus musculus; assay: Analgetic activity in naloxone challenged mouse assessed as frequency pretreated for 2 day by mouse jumping test; type: functional, organism-based
Mus musculus [13] = assay: Analgetic activity against CF-1 mouse assessed as increase in reaction time at 40 mg/kg, po by heat stimulus induced tail flick response assay; type: functional, organism-based; set-up: dose 40 mg/kg
Mus musculus [14] = assay: Analgetic activity against CF-1 mouse assessed as increase in reaction time at 20 mg/kg, sc by heat stimulus induced tail flick response assay; type: functional, organism-based; set-up: dose 20 mg/kg
Mus musculus [15] = organism: Mus musculus; assay: Analgetic activity in nalorphine challenged mouse assessed as frequency pretreated for 2 day by mouse jumping test; type: functional, organism-based

Which results are given for `CC1C2Cc3ccc(O)cc3C1(c1ccccc1)CCN2C` (racemic)?
Activity (Mus musculus [1]): Active; Activity (Mus musculus [2]): Active

Which results are given for `CN1CCC2(c3ccc(Cl)cc3)CC1Cc1ccccc12` (racemic)?
Activity (Mus musculus [3]): Active; Activity (Mus musculus [4]): Active

Which Activity (Mus musculus [5]) does the source give for `CC1C2Cc3ccc(O)cc3C1(c1ccccc1)CCN2CCc1ccc([N+](=O)[O-])cc1.Cl` (stereo not drawn) here?
Its Activity is “inactive”.

What about the Activity (Mus musculus [6]) of the same compound?
Its Activity is “inactive”.

What about the ED50 (Mus musculus [7]) of the same compound?
The ED50 was greater than 100 mg/kg.

`CN1CCC2(c3ccccc3)CC1Cc1ccccc12` (stereo in doubt; 37) was tested. Which Activity (Mus musculus [5]) did it give?
Its Activity is “inactive”.

Which Activity (Mus musculus [8]) does the source give for `Br.CC1=C(c2ccccc2)CCN(C)C1Cc1ccccc1` (stereo not drawn) here?
The Activity was “Active”.

And the ED50 (Mus musculus [9])?
Its ED50 is 45 mg/kg.

How did the Activity (Mus musculus [3]) turn out when `Cc1ccc(S(=O)(=O)Oc2ccc3c(c2)C2(c4ccccc4)CCN(C)C(C3)C2)cc1` (racemic) was run?
Its Activity is “inactive”.

`C/C(Cl)=C/CN1CCC2(c3ccccc3)c3cc(O)ccc3CC1C2C` (racemic) was tested. Which Activity (Mus musculus [8]) did it give?
Its Activity is “inactive”.

And the ED50 (Mus musculus [9])?
The ED50 was greater than 100 mg/kg.

How did the Activity (Mus musculus [5]) turn out when `Oc1ccc2c(c1)C1(c3ccccc3)CCNC(C2)C1` (racemic) was run?
Its Activity is “inactive”.

What about the Activity (Mus musculus [4]) of the same compound?
The Activity was “inactive”.

Which results are given for `CC1C2Cc3ccccc3C1(c1ccccc1)CCN2C` (racemic)?
Activity (Mus musculus [10]): Active; Activity (Mus musculus [11]): Active

Which Activity (Mus musculus [10]) does the source give for `C=C(Br)CN1CCC2(c3ccccc3)c3cc(O)ccc3CC1C2C.Cl` (stereo not drawn) here?
The Activity was “inactive”.

And the ED50 (Mus musculus [9])?
The ED50 was greater than 100 mg/kg.

And the Activity (Mus musculus [12])?
Its Activity is “inactive”.

Which results are given for `COc1ccc2c(c1)C1(c3ccccc3)CCNC(C2)C1.Cl` (stereo not drawn)?
Activity (Mus musculus [5]): inactive; ED50 (Mus musculus [9]): 100 mg/kg

Which results are given for `CC1C2Cc3ccc(O)cc3C1(c1ccccc1)CCN2CCc1ccccc1` (racemic)?
Activity (Mus musculus [13]): Active; Activity (Mus musculus [14]): Active

How did the Activity (Mus musculus [8]) turn out when `c1ccc(C23CCNC(Cc4ccccc42)C3)cc1` (stereo not drawn) was run?
Its Activity is “Active”.

Which Activity (Mus musculus [5]) does the source give for `COc1ccc2c(c1)C1(c3ccccc3)CCN(CC=C(C)C)C(C2)C1C` (stereo not drawn) here?
The Activity was “inactive”.

What about the ED50 (Mus musculus [9]) of the same compound?
The ED50 was greater than 100 mg/kg.

`CC(=O)Oc1ccc2c(c1)C1(c3ccccc3)CCN(C)C(C2)C1` (racemic) was tested. Which Activity (Mus musculus [3]) did it give?
The Activity was “inactive”.

What about the ED50 (Mus musculus [9]) of the same compound?
Its ED50 is 9.4 mg/kg.

What about the Activity (Mus musculus [12]) of the same compound?
The Activity was “inactive”.

For `CC1C2Cc3ccc(O)cc3C1(c1ccccc1)CCN2CCO` (racemic), which Activity (Mus musculus [8]) is on record?
The Activity was “inactive”.

And the Activity (Mus musculus [6])?
The Activity was “inactive”.

How did the Activity (Mus musculus [8]) turn out when `c1ccc(CCN2CCC3(c4ccccc4)CC2Cc2ccccc23)cc1` (stereo not drawn) was run?
The Activity was “inactive”.

Which Activity (Mus musculus [3]) does the source give for `C/C(Cl)=C\CN1CCC2(c3ccccc3)c3cc(O)ccc3CC1C2C` (stereo not drawn) here?
Its Activity is “inactive”.

And the ED50 (Mus musculus [9])?
The ED50 was greater than 100 mg/kg.

For `CCC1C2Cc3ccc(O)cc3C1(c1ccccc1)CCN2C` (racemic), which Activity (Mus musculus [14]) is on record?
The Activity was “Active”.

How did the Activity (Mus musculus [5]) turn out when `CC(=O)Oc1ccc2c(c1)C1(c3ccccc3)CCN(CC=C(C)C)C(C2)C1C` (stereo not drawn) was run?
The Activity was “inactive”.

Which Activity (Mus musculus [13]) does the source give for `CN1CCC2(c3ccccc3)CC1Cc1ccccc12` (racemic) here?
Its Activity is “Active”.

And the Activity (Mus musculus [14])?
The Activity was “Active”.

With `c1ccc(CCN2CCC3(c4ccccc4)CC2Cc2ccccc23)cc1` (racemic) as the compound, how does the Activity (Mus musculus [4]) read?
Its Activity is “Active”.

With `CC1C2Cc3ccc(O)cc3C1(c1ccccc1)CCN2CC(c1ccccc1)c1ccccc1` (stereo not drawn) as the compound, how does the Activity (Mus musculus [4]) read?
The Activity was “inactive”.

For `CCOC(=O)CN1CCC2(c3ccccc3)c3cc(O)ccc3CC1C2C` (stereo not drawn), which Activity (Mus musculus [5]) is on record?
The Activity was “inactive”.

`CN1CCC2(c3ccccc3)CC1Cc1cc(O)c(O)c(O)c12` (racemic) was tested. Which Activity (Mus musculus [4]) did it give?
The Activity was “inactive”.

Which Activity (Mus musculus [14]) does the source give for `CN1CCC2(c3ccccc3)CC1Cc1ccccc12` (stereo in doubt; 36) here?
The Activity was “Active”.

What about the Activity (Mus musculus [15]) of the same compound?
The Activity was “inactive”.

What does the source list for `CCOC(=O)C(C)N1CCC2(c3ccccc3)c3cc(O)ccc3CC1C2C` (stereo not drawn)?
Activity (Mus musculus [5]): inactive; ED50 (Mus musculus [9]): > 100 mg/kg

Which results are given for `Br.CN1CCC2(c3ccccc3)CC1Cc1ccc(F)cc12` (racemic)?
Activity (Mus musculus [3]): inactive; ED50 (Mus musculus [7]): 33 mg/kg

Which Activity (Mus musculus [10]) does the source give for `Br.CN1CCC(c2ccccc2)=CC1Cc1ccccc1` (stereo not drawn) here?
Its Activity is “Active”.

And the ED50 (Mus musculus [9])?
Its ED50 is 6.6 mg/kg.

And the ED50 (Mus musculus [7])?
Its ED50 is 37 mg/kg.

What about the Activity (Mus musculus [12]) of the same compound?
The Activity was “inactive”.

Which results are given for `CC1=C(c2ccccc2)CCN(C)C1Cc1ccc(O)cc1` (stereo not drawn)?
Activity (Mus musculus [8]): Active; ED50 (Mus musculus [9]): 5 mg/kg; Activity (Mus musculus [12]): inactive

With `COc1ccc(CC2C=C(c3ccccc3)CCN2C)cc1` (stereo not drawn) as the compound, how does the Activity (Mus musculus [3]) read?
Its Activity is “Active”.

What about the Activity (Mus musculus [12]) of the same compound?
The Activity was “inactive”.

Which results are given for `CCOC(=O)CCN1CCC2(c3ccccc3)CC1Cc1ccc(O)cc12` (racemic)?
Activity (Mus musculus [5]): inactive; ED50 (Mus musculus [9]): 78 mg/kg; ED50 (Mus musculus [7]): > 100 mg/kg

Which ED50 (Mus musculus [7]) does the source give for `CC1C2Cc3ccc(OC(=O)c4ccccc4Cl)cc3C1(c1ccccc1)CCN2C` (stereo not drawn) here?
The ED50 was 49 mg/kg.

What about the Activity (Mus musculus [15]) of the same compound?
Its Activity is “Active”.

Which Activity (Mus musculus [10]) does the source give for `CN(C)C(=S)Oc1ccc2c(c1)C1(c3ccccc3)CCN(C)C(C2)C1` (racemic) here?
The Activity was “inactive”.

What about the Activity (Mus musculus [6]) of the same compound?
The Activity was “inactive”.

`Oc1ccc2c(c1)C1(c3ccccc3)CCN(CCc3ccccc3)C(C2)C1` (racemic) was tested. Which Activity (Mus musculus [10]) did it give?
Its Activity is “Active”.

Which ED50 (Mus musculus [9]) does the source give for `CC1C2Cc3ccc(OC(=O)c4ccccc4F)cc3C1(c1ccccc1)CCN2C` (stereo not drawn) here?
Its ED50 is 0.5 mg/kg.

And the Activity (Mus musculus [15])?
The Activity was “Active”.
